The record followed here is patent US9758477B2, “Sulfamoylbenzamide derivatives as antiviral agents against HBV infection” (priority 2011, dated 2017).

One data set concerns HBV. Kind of data set: Antiviral efficacy in AML12HBV10 cells, HBV DNA by dot-blot hybridization. Type of data set: cell-based, Hepatitis B virus (HBV). As to conditions: Hepatitis B virus. The method, then:
The antiviral efficacy of the compounds of the disclosure, as presented in Tables 5, 6, 7, 8 and 9, were determined in AML12HBV10 cells. AML12HBV10 is an immortalized murine hepatocyte (AML12)-derived stable cell line that supports robust HBV replication in a tetracycline inducible manner (Xu et al.). The cells were seeded into 96 well plates at a density of 2×10^4 cells per well and cultured in DMEM/F12 media with 10% fetal bovine serum in the absence of tetracycline to allow pgRNA transcription and HBV DNA replication. One day after seeding, cells were left untreated or treated with a serial dilution of testing compounds, ranging from 50 μM to 0.39 μM, for 48 hours. Cells were then lysed by adding into each well of 100 μl lysis buffer containing 10 mM Tris-HCl (pH 7.6), 1 mM EDTA, 100 mM NaCl and 1% NP-40 and incubated at 37° C. for 30 minutes. Half amount (50 μl) of cell lysate from each well was combined with equal volume of denaturing solution containing 0.5N NaOH and 1.5M NaCl. After 5 minute incubation, 100 μl of neutralization solution (IM Tris-HCl, pH 7.4, 1.5M NaCl) was added into each well. The denatured cell lysates (totally 200 μl) were applied onto Nylon membrane using 96-well dot-blot manifold (Biorad). HBV DNA in the cell lysates were determined by dot-blot hybridization with alpha-^32P-UTP-labelled riboprobe specific for HBV minus strand DNA. The antiviral efficacy of a compound of the disclosure was expressed as the concentration that reduces the amount of HBV DNA by 50% (EC50).

Data set [1] can be described thus: Cytotoxicity in HepDES19 cells, MTT assay. In kind it is cell-based. As to conditions: human, Table 10, HepDES19 cells, unit inferred. The method, then:
Determination of cytotoxicity of compounds of the disclosure in human hepatoma-derived cell lines, HepDES19 cells were seeded into 96-well plates at a density of […] cells per well and cultured in DMEM/F12 media with 10% fetal bovine serum in the absence of tetracycline. One day after seeding, cells were left untreated or treated with a serial dilution of testing compounds, ranging from 50 μM to 0.39 μM, for 6 days. The cell viability was measured by a MTT assay, following procedure provided by the manufacturer (Promega). The cytotoxicity of a compound was expressed as the concentration of compound that reduces the viability of the cells by 50% (CC50).

Where [2] appears, read: AML12HBV10 cells, 48 hours, concentration reducing HBV DNA by 50%, read-out: EC50 (antiviral activity by dot blot hybridization).
[3] abbreviates: Table 10, AML12HBV10 cells, unit inferred, read-out: AML12HBV10 EC50.

Like-named read-outs stand apart in the source and are kept apart here.

The EC50 is the concentration needed to bring the measured effect to its halfway point. For orientation: CC50 means the concentration that lowers cell viability or growth by half. The low end stands for greater toxicity to the cells, the high end for lower toxicity to the cells. As to `CCC(C)NS(=O)(=O)c1ccc(F)c(C(=O)Nc2ccc(F)c(F)c2)c1` (stereo not drawn) [DVR-23, 5-sec-butylsulfamoyl-N-(3,4-difluoro-phenyl)-2-fluoro-benzamide], the EC50 in the data set with HBV (setting [2]) and in the data set on HBV (setting [3]) was 0.39 µM in each case. This compound registered a CC50 at 6 days in data set [1] greater than 50 µM.

`O=C(Nc1ccc(F)c(F)c1)c1cc(S(=O)(=O)NC2CCCC2)ccc1F` [DVR-56, 5-cyclopentylsulfamoyl-N-(3,4-difluoro-phenyl)-2-fluoro-benzamide]: the EC50 in the data set with HBV (setting [2]) and in the data set on HBV (setting [3]) was 0.39 µM each time. The compound also registered a CC50 at 6 days in data set [1] greater than 50 µM.
